Patent US9643999B2 (Bristol-Myers Squibb Company, priority 2012, dated 2017)
Where two headings read alike, the source gives them in different places.

Assays:
[1] = test system: HCV genotype 1b replicon; test: HCV replicon luciferase reporter assay, genotype 1b (LE_1b); format: cell-based; details: Hepatitis C virus, 72 h, HUH-7 cells, genotype 1b (Con1) replicon, 3 days incubation, Renilla luciferase
Description: An HCV replicon whole cell system was established as described by Lohmann V, Korner F, Koch J, Herian U, Theilmann L, Bartenschlager R., Science 285(5424):110-3 (1999) and modified to introduce a luciferase reporter, as first described by Krieger et al (Krieger N, Lohmann V, and Bartenschlager R, J. Virol. 75(10):4614-4624 (2001)). cDNA encoding a humanized form of the Renilla luciferase gene and a linker sequence fused directly to the 3′-end of the luciferase gene were introduced into the replicon construct using an Asc1 restriction site located in core, directly upstream of the neomycin marker gene. The adaptive mutation at position 1179 (serine to isoleucine) was also introduced (Blight K J, Kolykhalov, A A, Rice, C M, Science 290(5498):1972-1974). A stable cell line constitutively expressing this HCV replicon construct was generated by first linearizing plasmid DNAs with ScaI. RNA transcripts were synthesized in vitro using the T7 MegaScript transcription kit (Ambion, Austin, Tex.) according to manufacturer's directions. In vitro transcripts of the cDNA were transfected into the human hepatoma cell line, HUH-7. […] Resulting cell lines were characterized for positive and negative strand RNA production and protein production over time. […]
(§1) HCV replicon luciferase assays were developed to monitor the inhibitory effects of compounds described in the disclosure on HCV genotypes 1a and 1b viral replication. HUH-7 cells, constitutively expressing the HCV replicon, were grown in Dulbecco's Modified Eagle Media (DMEM) (Gibco-BRL) containing 10% Fetal calf serum (FCS) (Sigma) and 1 mg/mL G418 (Gibco-BRL). Compounds were serially diluted 3 folds in DMSO for a twenty-point titration and subsequently transferred to sterile 384-well tissue-culture treated plates (Corning cat #3571). The plates were then seeded with 50 μL of cells at a density of 3.0×10^3 cells/well in DMEM containing 4% FCS (final DMSO concentration at 0.5%). After 3 days incubation at 37° C., cells were analyzed for Renilla Luciferase activity using the EnduRen as substrate (Promega cat #E6485). The EnduRen substrate was diluted in DMEM and then added to the plates to a final concentration of 7.5 μM. The plates were incubated for 2 hrs at 37° C. and then read immediately for 30 seconds with Viewlux Imager (PerkinElmer) using a luminescence program. To assess cytotoxicity of compounds, CC50 values were generated by multiplexing the EnduRen-containing plates with Cell Titer-Blue (Promega, cat #G8082). Cell-Titer Blue (3 μL) was added to each well and incubated for 8 hrs at 37° C. The fluorescence signal from each well was read, with an excitation wavelength at 525/10 nm and an emission wavelength of 598/10 nm, using the Viewlux Imager.
(§2) The EC50 values for compounds were calculated by using a four-parameter logistic equation: y=A+((B−A)/(1+((C/x)^D))), where A and B denotes minimal and maximal % inhibition, respectively, C is the EC50, D is the hill slope and x represents compound concentration.

[2] = test system: HCV genotype 1a replicon; test: HCV replicon luciferase reporter assay, genotype 1a (LE_1a); format: cell-based; details: Hepatitis C virus, 72 h, HUH-7 cells, genotype 1a H77 replicon, 3 days incubation, Renilla luciferase
Description: An HCV replicon whole cell system was established as described by Lohmann V, Korner F, Koch J, Herian U, Theilmann L, Bartenschlager R., Science 285(5424):110-3 (1999) and modified to introduce a luciferase reporter, as first described by Krieger et al (Krieger N, Lohmann V, and Bartenschlager R, J. Virol. 75(10):4614-4624 (2001)). cDNA encoding a humanized form of the Renilla luciferase gene and a linker sequence fused directly to the 3′-end of the luciferase gene were introduced into the replicon construct using an Asc1 restriction site located in core, directly upstream of the neomycin marker gene. The adaptive mutation at position 1179 (serine to isoleucine) was also introduced (Blight K J, Kolykhalov, A A, Rice, C M, Science 290(5498):1972-1974). A stable cell line constitutively expressing this HCV replicon construct was generated by first linearizing plasmid DNAs with ScaI. RNA transcripts were synthesized in vitro using the T7 MegaScript transcription kit (Ambion, Austin, Tex.) according to manufacturer's directions. In vitro transcripts of the cDNA were transfected into the human hepatoma cell line, HUH-7. […] Resulting cell lines were characterized for positive and negative strand RNA production and protein production over time.
A stable HCV replicon luciferase reporter cell line representing the genotype 1a H77 strain (Yanagi M, Purcell R H, Emerson S U, et al. Transcripts from a single full-length cDNA clone of hepatitis C virus are infectious when directly transfected into the liver of a chimpanzee. Proc Natl Acad Sci USA 1997; 94(16):8738-8743) was generated as described previously for the genotype 1b(Con1) replicon luciferase cell line. The replicon construct was modified by introducing mutations were introduced into the genes encoding the NS3 helicase domain (proline replaced by leucine at position 1496) and NS5A (serine to isoleucine at position 2204) to improve replication in cell culture.
as §1, §2

Compound | EC50 ([1]; read-out: LE_1b (EC50, range)) | EC50 ([2]; read-out: LE_1a (EC50, range)) | EC50 ([1]; read-out: LE_1b (EC50)) | EC50 ([2]; read-out: LE_1a (EC50))
C[C@@H]1CC/C=C\[C@@H]2C[C@@]2(C(=O)NS(=O)(=O)C2(C)CC2)NC(=O)[C@@H]2C[C@@H](Oc3nccc4c5c(ccc34)CCO5)CN2C(=O)[C@@H](NC(=O)OC(C)(C)C(F)(F)F)[C@H](C)C1 [Compound 5497] | 1.01 to 5 nM | 5.01 to 35 nM | – | –
CC[C@@H]1C[C@H](C)CC/C=C\[C@@H]2C[C@@]2(C(=O)NS(=O)(=O)C2CC2)NC(=O)[C@@H]2C[C@@H](Oc3ncc(-c4nc(C(C)(C)C)cs4)c4cc(OC)ccc34)CN2C(=O)[C@H]1NC(=O)OC(C)(C)C [Compound 4280, tert-butyl((2R,6S,7R,9R,13aS,14aR,16aS,Z)-2-((4-(4-(tert-butyl)thiazol-2-yl)-6-methoxyisoquinolin-1-yl)oxy)-14a-((cyclopropylsulfonyl)carbamoyl)-7-ethyl-9-methyl-5,16-dioxo-1,2,3,5,6,7,8,9,10,11,13a,14,14a,15,16,16a-hexadecahydrocyclopropa[e]pyrrolo[1,2-a][1,4]diazacyclopentadecin-6-yl)carbamate] | 1.01 to 5 nM | 5.01 to 35 nM | – | –
CC[C@@H]1C[C@H](C)CC/C=C\[C@@H]2C[C@@]2(C(=O)NS(=O)(=O)C2(C)CC2)NC(=O)[C@@H]2C[C@@H](Oc3nccc4c5c(ccc34)CCO5)CN2C(=O)[C@H]1NC(=O)OC(C)(C)C(F)(F)F [Compound 5500] | 5.01 to 35 nM | 5.01 to 35 nM | – | –
COc1ccc2c(O[C@@H]3C[C@H]4C(=O)N[C@]5(C(=O)NS(=O)(=O)C6(C)CC6)C[C@H]5/C=C\CC[C@@H](C)C[C@@H](C)[C@H](NC(=O)OC(C)(C)C(F)(F)F)C(=O)N4C3)cc(-n3ccc(C(C)C)n3)nc2c1 [Compound 4299] | 0.51 to 1 nM | 0.51 to 1 nM | – | –
C[C@@H]1CC/C=C\[C@@H]2C[C@@]2(C(=O)NS(=O)(=O)C2(C)CC2)NC(=O)[C@@H]2C[C@@H](Oc3nccc4c5c(ccc34)CCO5)CN2C(=O)[C@@H](NC(=O)OC(C)(C)C)[C@H](C)C1 [Compound 5491, tert-butyl((2R,6S,7R,9R,13aS,14aR,16aS,Z)-2-((2,3-dihydrofuro[2,3-f]isoquinolin-6-yl)oxy)-7,9-dimethyl-14a-(((1-methylcyclopropyl)sulfonyl)carbamoyl)-5,16-dioxo-1,2,3,5,6,7,8,9,10,11,13a,14,14a,15,16,16a-hexadecahydrocyclopropa[e]pyrrolo[1,2-a][1,4]diazacyclopentadecin-6-yl)carbamate] | 1.01 to 5 nM | 5.01 to 35 nM | 2.57 nM | 5.41 nM
CC[C@@H]1C[C@H](C)CC/C=C\[C@@H]2C[C@@]2(C(=O)NS(=O)(=O)C2(C)CC2)NC(=O)[C@@H]2C[C@@H](Oc3ncc(-c4nccs4)c4cc(OC)ccc34)CN2C(=O)[C@H]1NC(=O)OC(C)(C)C [Compound 4255, tert-butyl((2R,6S,7R,9R,13aS,14aR,16aS,Z)-7-ethyl-2-((6-methoxy-4-(thiazol-2-yl)isoquinolin-1-yl)oxy)-9-methyl-14a-(((1-methylcyclopropyl)sulfonyl)carbamoyl)-5,16-dioxo-1,2,3,5,6,7,8,9,10,11,13a,14,14a,15,16,16a-hexadecahydrocyclopropa[e]pyrrolo[1,2-a][1,4]diazacyclopentadecin-6-yl)carbamate] | 0.51 to 1 nM | 1.01 to 5 nM | – | –
COc1ccc2nc(O[C@@H]3C[C@H]4C(=O)N[C@]5(C(=O)NS(=O)(=O)C6(C)CC6)C[C@H]5/C=C\CC[C@@H](C)C[C@@H](C)[C@H](NC(=O)OC(C)(C)C)C(=O)N4C3)c(C3CC3)nc2c1 [Compound 4303] | 1.01 to 5 nM | 1.01 to 5 nM | – | –
Cc1cn2c(n1)nc(O[C@@H]1C[C@H]3C(=O)N[C@]4(C(=O)NS(=O)(=O)C5(C)CC5)C[C@H]4/C=C\CC[C@@H](C)C[C@@H](C)[C@H](NC(=O)OC(C)(C)C(C)(F)F)C(=O)N3C1)c1cc(Cl)ccc12 [Compound 6137] | 0.51 to 1 nM | 1.01 to 5 nM | – | –
CC[C@@H]1C[C@H](C)CC/C=C\[C@@H]2C[C@@]2(C(=O)NS(=O)(=O)C2(C)CC2)NC(=O)[C@@H]2C[C@@H](Oc3ncc(N(CC)C(=O)c4ccccc4)c4cc(OC)ccc34)CN2C(=O)[C@H]1NC(=O)OC(C)(C)C(F)(F)F [Compound 4264] | 1.01 to 5 nM | 1.01 to 5 nM | – | –
CC[C@@H]1C[C@H](C)CC/C=C\[C@@H]2C[C@@]2(C(=O)NS(=O)(=O)C2(C)CC2)NC(=O)[C@@H]2C[C@@H](Oc3ncc(N(C)C(=O)c4ccccc4)c4cc(OC)ccc34)CN2C(=O)[C@H]1NC(=O)OC(C)(C)C(F)(F)F [Compound 4248] | 1.01 to 5 nM | 1.01 to 5 nM | – | –
CC[C@@H]1C[C@H](C)CC/C=C\[C@@H]2C[C@@]2(C(=O)NS(=O)(=O)C2CC2)NC(=O)[C@@H]2C[C@@H](Oc3ncc(C(=O)OC)c4cc(OC)ccc34)CN2C(=O)[C@H]1NC(=O)OC(C)(C)C(F)(F)F [Compound 4286, methyl 1-(((2R,6S,7R,9R,13aS,14aR,16aS,Z)-14a-((cyclopropylsulfonyl)carbamoyl)-7-ethyl-9-methyl-5,16-dioxo-6-((((1,1,1-trifluoro-2-methylpropan-2-yl)oxy)carbonyl)amino)-1,2,3,5,6,7,8,9,10,11,13a,14,14a,15,16,16a-hexadecahydrocyclopropa[e]pyrrolo[1,2-a][1,4]diazacyclopentadecin-2-yl)oxy)-6-methoxyisoquinoline-4-carboxylate] | 0.51 to 1 nM | 1.01 to 5 nM | – | –
C[C@@H]1CC/C=C\[C@@H]2C[C@@]2(C(=O)NS(=O)(=O)C2(C)CC2)NC(=O)[C@@H]2C[C@@H](Oc3nc4nccn4c4ccccc34)CN2C(=O)[C@@H](NC(=O)OC(C)(C)C(F)(F)F)[C@H](C)C1 [Compound 6127] | 5.01 to 35 nM | 5.01 to 35 nM | – | –
CC[C@@H]1C[C@H](C)CC/C=C\[C@@H]2C[C@@]2(C(=O)NS(=O)(=O)C2CC2)NC(=O)[C@@H]2C[C@@H](Oc3ncc(-c4nc(C(C)(C)C)cs4)c4cc(OC)ccc34)CN2C(=O)[C@H]1NC(=O)OC(C)(C)C(F)(F)F [Compound 4288] | 5.01 to 35 nM | 5.01 to 35 nM | – | –
C[C@@H]1CC/C=C\[C@@H]2C[C@@]2(C(=O)NS(=O)(=O)C2(C)CC2)NC(=O)[C@@H]2C[C@@H](Oc3nc4nccn4c4ccccc34)CN2C(=O)[C@@H](NC(=O)OC(C)(C)C)[C@H](C)C1 [Compound 6122, tert-butyl((2R,6S,7R,9R,13aS,14aR,16aS,Z)-2-(imidazo[1,2-a]quinazolin-5-yloxy)-7,9-dimethyl-14a-(((1-methylcyclopropyl)sulfonyl)carbamoyl)-5,16-dioxo-1,2,3,5,6,7,8,9,10,11,13a,14,14a,15,16,16a-hexadecahydrocyclopropa[e]pyrrolo[1,2-a][1,4]diazacyclopentadecin-6-yl)carbamate] | 35 to 145 nM | 35 to 145 nM | 72.5 nM | 72 nM
